Like-named read-outs stand apart in the source and are kept apart here.
Tests used:
[1] = tested on: bovine viral diarrhea virus (BVDV); experiment: anti-BVDV drug screening assay (CPE inhibition, MTS staining); assay type: cell-based; settings: for EC50: Bovine viral diarrhea virus isolates and strains, 144 h, read-out: MDBK/BVDV EC50; for TI (TC50/EC50): therapeutic index, MDBK TC50 / BVDV EC50
Experimental: To assess the effectiveness of the pyrimidinedione derivative used in the present invention as a drug for preventing or treating hepatitis C, an anti-BVDV drug screening assay was conducted with bovine viral diarrhea virus (BVDV). BVDV, a virus having a genome, reproduction cycle and infection type similar to hepatitis C virus, was employed because hepatitis C virus can not be subjected to […] cultivation.
(§1) One day before the screening, MDBK cell line (Mardin-Darby bovine kidney, ATTC CCL22) which had been subcultured previously was trypsinized and spread on a plate, followed by counting the cell colonies formed. Then, equal amount of DMEM (Dulbecco's Modified Eagle's Medium) and Ham's F-12 were mixed, and 10% fetal bovine serum was added to the resulting mixture to prepare a tissue culture medium. The MDBK cells were inoculated to the medium at a concentration of 6×10^4 cells/ml, and then the resulting cell solution was added to a 96-well flat-bottomed plate in an amount of 100 μl per well.
Meanwhile, BVDV (ATCC VR534), which had been stored in a −80° C. freezer at a pre-determined concentration, was transferred to a biological safety cabinet and allowed to thaw at room temperature. The virus was diluted with the tissue culture medium in an sufficient amount for the virus in each well to induce 85 to 95% cell death 6 days after the virus infection.
(§2) Specified pyrimidinedione derivatives (SAMJIN Pharmaceuticals) were prepared as test compounds and a conventional drug for treating hepatitis C, Ribavirin (Sigma) was used as a comparative drug. Each of the test compounds was dissolved in DMSO to prepare a sample solution. Then, the resulting sample solution was diluted with a mixture prepared by mixing equal amount of DMEM and Ham's F-12 in accordance with the three one-log series dilution to prepare sample dilutes.
(§3) One day after adding MDBK cells to the 96-well plate, the culture solution on the plate was removed and each of the sample dilutes obtained step 2 was added thereto, adjusting the final concentration thereof to 1 to 100 μg/ml. The comparative drug, Ribavirin, was added to each of the control wells of the palte at a concentration of 1 to 100 μg/ml.
(§4) The well-plate comprising ‘cell control group well’ containing MDBK cell only; ‘virus control well’ containing MDBK cell and BVDV virus; ‘drug toxicity control well’ containing MDBK cell and sample compounds for assessing the cell toxicity of each sample; ‘drug calorimetric control well’ containing only one of the sample compounds; and ‘experimental group well’ containing MDBK cell, BVDV virus and one of the sample compounds.
(§5) The well-plate had been placed in a 5% CO2 incubator at 37° C. for 6 days, and then, analyzed with Cell Proliferation Assay kit (CellTiter96® AQUEOUS one solution, Promega). The analysis involves the step of counting live cells by a colorimetric method and the kit contains MTS, a new tetrazolium compound which forms a stable solution when the test compounds are added, and PES, an electron coupling agent. In a cell having vigorous metabolism, NADPH or NADH generated by mitochodrial dehydrogenase renders the soluble MTS to a form of […] formazan crystals. Therefore, the amount of formazan crystal is directly proportional to the number of live cells in a medium.
(§6) The CellTiter96® AQUEOUS one solution reagent of 10 μl was added to each well of the plate and cultivated in a incubator at 37° C. for 4 hours. Then, the plate was covered with an adhesive plate sealer, mixing formazan crystals. Absorbance of each well was measured by Molecular Devices Vmax plate reader (Molecular Devices) at 490 nm.
The toxicity of each sample compound was analyzed with a in-house computer program and the cytopathic effect (CPE), followed by calculating % cell activity, therapeutic Index (TI). […]

[2] = drug toxicity control in uninfected MDBK cells (MTS staining); assay type: cell-based; settings: bovine
Experimental: as §1, §2, §3, §4, §5, §6
The toxicity of each sample compound was analyzed with a in-house computer program and the cytopathic effect (CPE), followed by calculating % cell activity, therapeutic Index (TI).
In table 2, EC50 means the dosage at which the desired response is present for 50% of the population, i.e., the concentration of the sample compounds at which the BVDV infection was inhibited for 50% of MDBK cells; TC50 means the dosage at which cell death is induced for 50% of the population, i.e., the cytotoxicity of the sample compounds for MDBK cells. TI (TC50/EC50) means a comparison of the amount of a therapeutic agent that causes the therapeutic effect to the amount that causes toxic effects. Quantitatively, it is the ratio given by the dose required to produce the toxic effect divided by the therapeutic dose.

[3] = concentration at which BVDV infection was inhibited for 50% of MDBK cells, 6 days, MTS

| SMILES | EC50 [1, 3] [µM] | TI (TC50/EC50) [1] | CC50 at 6 days [2] [µM] | EC50 ([1]; MDBK) [µM] | CC50 at 6 days ([2]; uninfected MDBK cells (drug toxicity control wells), cytotoxicity for MDBK cells, 6 days, MTS, read-out: MDBK TC50) [µM] |
| --- | --- | --- | --- | --- | --- |
| Cc1cc(C)cc(Sc2c(C(C)C)c(=O)[nH]c(=O)n2CC2CCCCC2)c1 [Sample 1k, 1-cyclohexylmethyl-6-(3,5-dimethyl-phenylsulfanyl)-5-isopropyl-1H-pyrimidine-2,4-dione] | 1.29 | 5.11 | 6.6 | – | – |
| CCc1c(Oc2cc(C)cc(C)c2)n(CC2=CCCC2)c(=O)[nH]c1=O [Sample 1f, 1-cyolopent-1-enymethyl-6-(3,5-dimethyl-phenoxy)-5-ethyl-1H-pyrimidine-2,4-dione] | 1.51 | >66.3 | > 100 | – | – |
| Cc1cc(C)cc(Sc2c(C(C)C)c(=O)[nH]c(=O)n2CCC2CCCC2)c1 [Sample 1l, 1-(2-cyclopentyl-ethyl)-6-(3,5-dimethyl-phenylsulfanyl)-5-isopropyl-1H-pyrimidine-2,4-dione] | 14 | >3.6 | > 50 | – | – |
| Cc1cc(C)cc(C(=O)c2c(C(C)C)c(=O)[nH]c(=O)n2CCC2C=CCC2)c1 (stereo not drawn) [Sample 1o, 1-(2-cyclopent-2-enyl-ethyl)-6-(3,5-dimethyl-benzoyl)-5-isopropyl-1H-pyrimidine-2,4-dione] | – | 3.73 | 6.94 | 1.86 | – |
| Cc1cc(C)cc(Sc2c(C(C)C)c(=O)[nH]c(=O)n2CC2CCC2)c1 [Sample 1c, 1-cyclobutylmethyl-6-(3,5-dimethyl-phenylsulfanyl)-5-isopropyl-1H-pyrimidine-2,4-dione] | 1.44 | 4.58 | 6.6 | – | – |
| Cc1cc(C)cc(Sc2c(C(C)C)c(=O)[nH]c(=O)n2CC2CC2)c1 [Sample 1a, 1-cyclopropylmethyl-6-(3,5-dimethyl-phenylsulfanyl)-5-isopropyl-1H-pyrimidine-2,4-dione] | 1.57 | 4.2 | 6.6 | – | – |
| Cc1cc(C)cc(Oc2c(C(C)C)c(=O)[nH]c(=O)n2CCC2C=CCC2)c1 (stereo not drawn) [Sample 1m, 1-(2-cyclopent-2-enyl-ethyl)-6-(3,5-dimethyl-phenoxy)-5-isopropyl-1H-pyrimidine-2,4-dione] | – | >3.7 | > 50 | 13.4 | – |
| CC(C)c1c(Sc2ccccc2)n(CC2CC=CC2)c(=O)[nH]c1=O [Sample 1j, 1-cyclopent-3-enymethyl-5-isopropyl-6-phenylsulfanyl-1H-pyrimidine-2,4-dione] | 13.7 | >3.7 | > 50 | – | – |
| CCc1c(Oc2cc(C)cc(C)c2)n(CC2CC2)c(=O)[nH]c1=O [Sample 1b, 1-cyclopropylmethyl-6-(3,5-dimethyl-phenoxy)-5-ethyl-1H-pyrimidine-2,4-dione] | 14.1 | >7.1 | > 100 | – | – |
| NC(=O)c1ncn([C@@H]2O[C@H](CO)[C@@H](O)[C@H]2O)n1 [Ribavirin, reference compound] | 1.66 | 4.2 | – | – | 7 |
| Cc1cc(C)cc(Sc2c(C(C)C)c(=O)[nH]c(=O)n2CC2=CCCC2)c1 [Sample 1e, 1-cyclopent-1-enymethyl-6-(3,5-dimethyl-phenylsulfanyl)-5-isopropyl-1H-pyrimidine-2,4-dione] | 10.2 | >4.9 | > 50 | – | – |
| CCc1c(C(=O)c2cc(C)cc(C)c2)n(CC2=CCC(CO)C2)c(=O)[nH]c1=O (stereo not drawn) [Sample 1p, 6-(3,5-dimethyl-benzoyl)-5-ethyl-1-(4-hydroxymethyl-cyclopent-1-enylmethyl)-1H-pyrimidine-2,4-dione] | 15 | 5.11 | 66 | – | – |
| Cc1cc(C)cc(Oc2c(C(C)C)c(=O)[nH]c(=O)n2CC2=CCCC2)c1 [Sample 1g, 1-cyclopent-1-enymethyl-6-(3,5-dimethyl-phenoxy)-5-isopropyl-1H-pyrimidine-2,4-dione] | 20.1 | >2.5 | > 50 | – | – |
| CCc1c(C(=O)c2cc(C)cc(C)c2)n(CC2=CCCC2)c(=O)[nH]c1=O [Sample 1h, 1-cyclopent-1-enymethyl-6-(3,5-dimethyl-benzoyl)-5-ethyl-1H-pyrimidine-2,4-dione] | 13.9 | 1.2 | 17.1 | – | – |
| Cc1cc(C)cc(Sc2c(C(C)C)c(=O)[nH]c(=O)n2CC2CCCC2)c1 [Sample 1d, 1-cyclopentylmethyl-6-(3,5-dimethyl-phenylsulfanyl)-5-isopropyl-1H-pyrimidine-2,4-dione] | 13.7 | >3.7 | > 50 | – | – |
| Cc1cc(C)cc(C(=O)c2c(C(C)C)c(=O)[nH]c(=O)n2CC2=CCCC2)c1 [Sample 1i, 1-cyclopent-1-enymethyl-6-(3,5-dimethyl-benzoyl)-5-isopropyl-1H-pyrimidine-2,4-dione] | 1.36 | 15.0 | 20.5 | – | – |

— patent publication US7851479B2, “Use of pyrimidinedione derivative for preventing or treating hepatitis C” (priority 2006, dated 2010)
